From ChEMBL document CHEMBL1126415, “Phosphonate derivatives of N9-benzylguanine: a new class of potent purine nucleoside phosphorylase inhibitors” (Bioorg Med Chem Lett, 1992)
pIC50, pKi: −log10 of the molar value.

Legend:
[1] = biological target: T1, Purine nucleoside phosphorylase (Bos taurus, UniProt P55859); assay: Inhibitory concentration against calf spleen purine nucleoside phosphorylase in the presence of 50 mM (pi) […]
T1 sequence (P55859 whole entry): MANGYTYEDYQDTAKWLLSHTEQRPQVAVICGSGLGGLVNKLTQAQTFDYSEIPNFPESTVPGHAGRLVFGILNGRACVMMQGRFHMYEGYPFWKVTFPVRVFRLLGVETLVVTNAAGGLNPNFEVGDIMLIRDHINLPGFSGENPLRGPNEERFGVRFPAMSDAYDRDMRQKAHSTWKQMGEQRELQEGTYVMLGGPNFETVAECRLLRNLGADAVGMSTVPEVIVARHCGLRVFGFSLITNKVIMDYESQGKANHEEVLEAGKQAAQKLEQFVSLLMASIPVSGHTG

[2] = biological target: T1, Purine nucleoside phosphorylase; assay: Inhibitory activity against calf spleen purine nucleoside phosphorylase in the presence of 1 mM (pi) […]
[3] = biological target: T2, Purine nucleoside phosphorylase (Homo sapiens, UniProt P00491); assay: Inhibitory concentration against human erythrocytic purine nucleoside phosphorylase in the presence of 50 mM (pi) […]
T2 sequence (P00491 whole entry): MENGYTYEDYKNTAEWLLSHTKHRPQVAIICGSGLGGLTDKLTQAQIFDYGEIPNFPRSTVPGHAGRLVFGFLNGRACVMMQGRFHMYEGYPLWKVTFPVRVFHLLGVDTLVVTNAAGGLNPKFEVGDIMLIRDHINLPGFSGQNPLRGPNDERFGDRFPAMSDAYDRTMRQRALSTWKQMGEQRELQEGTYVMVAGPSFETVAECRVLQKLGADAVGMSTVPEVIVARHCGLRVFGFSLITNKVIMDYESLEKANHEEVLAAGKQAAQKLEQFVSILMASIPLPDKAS

[4] = biological target: T2, Purine nucleoside phosphorylase; assay: Inhibitory activity against human erythrocytic purine nucleoside phosphorylase in the presence of 1 mM (pi) […]
[5] = biological target: T2, Purine nucleoside phosphorylase; assay: Tested for its inhibitory activity against human erythrocytic purine nucleoside phosphorylase

Structure (SMILES)	pKi [5]	pIC50 [1]	pIC50 [3]	also measured
Nc1nc(O)c2ncn(Cc3ccccc3/C=C(\F)P(=O)(O)O)c2n1		7.22		pKi [2]: 9.10
Nc1nc(O)c2ncn(Cc3ccccc3/C=C/P(=O)(O)O)c2n1		7.07	6.81	pKi [4]: 8.49
Nc1nc(O)c2ncn(Cc3ccccc3CC(F)(F)P(=O)(O)O)c2n1		6.70		
Nc1nc(O)c2ncn(Cc3ccccc3C(F)C(F)(F)P(=O)(O)O)c2n1 (stereo not given)		7.00	7.07	

Second part, led by results:

pKi [5]	Structure (SMILES)	pIC50 [1]	pIC50 [3]	also measured
7.74	Nc1nc2c(ncn2CCCCC(F)(F)P(=O)(O)O)c(=O)[nH]1			
6.70	Nc1nc(O)c2nc(N)n(Cc3ccccc3)c2n1			
